Test results published in PubChem BioAssay (NCI).
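The compound was tested at five concentrations on cells cultured in 96-well plates, with a 48-hour exposure period. At the GI50, growth is halved. TGI is the concentration that stops growth completely.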

Tests used:
Experiment in all cases: NCI tumour cell line growth inhibition, 48 h
[1] = test system: CCRF-CEM leukemia
[2] = test system: HOP-92 NSCLC
[3] = test system: HT29 colon
[4] = test system: MOLT-4 leukemia
[5] = test system: OVCAR-5 ovarian
[6] = test system: RPMI-8226 leukemia
[7] = test system: RXF 393 renal
[8] = test system: SK-MEL-2 melanoma
[9] = test system: SN12C renal
[10] = test system: UACC-62 melanoma
[11] = test system: M19-MEL melanoma

Compound	TGI [1] [µM]	TGI [2] [µM]	TGI [3] [µM]	TGI [4] [µM]	TGI [5] [µM]	TGI [6] [µM]	TGI [7] [µM]	TGI [8] [µM]	TGI [9] [µM]	TGI [10] [µM]	TGI [11] [µM]	GI50 [2] [µM]	GI50 [4] [µM]	GI50 [1] [µM]	GI50 [11] [µM]	GI50 [5] [µM]	GI50 [6] [µM]	GI50 [7] [µM]	GI50 [8] [µM]	GI50 [10] [µM]
CCCc1c(-c2ccccc2)[nH]c2ccccc2c1=O	> 100	> 100	50.3	> 100	> 100	> 100	> 100	96.7	> 100	> 100	–	–	–	–	–	–	–	–	–	–
Nc1ccn(C2C=C(CO)C(O)C2O)c(=O)c1 (stereo not given)	–	> 625	> 625	–	–	> 625	–	> 625	> 625	> 625	> 625	–	–	–	–	–	–	–	–	–
COc1nc(=O)n(COC(CO)CN2C(=O)c3ccccc3C2=O)cc1Cc1cccc(OCc2ccccc2)c1 (stereo not given)	60.2	45.2	> 100	49.4	–	42.3	–	31.3	58.5	28.5	45.2	–	–	–	–	–	–	–	–	–
O=C1OC2(CC1C1(O)C3CC4CC(C3)CC1C4)C1CC3CC(C1)CC2C3 (stereo not given)	> 100	–	> 100	> 100	–	–	> 100	> 100	> 100	> 100	> 100	–	–	–	–	–	–	–	–	–
C=CC1(NC(=O)c2ccccc2)CCC(C(C)(C)C)CC1 (stereo not given)	72.1	–	55	30.3	> 100	> 100	> 85.8	56.6	> 61.4	97.8	84.4	–	–	–	–	–	–	–	–	–
CN(C)CCCN1c2ccccc2Sc2ccc3ccccc3c21	8.2	21	12.5	10.1	24.7	7.45	3.92	13.1	22.9	9.62	–	–	–	–	–	–	–	–	–	–
N#C[C@H](OC1OC(COC2OC(CO)C(O)C(O)C2O)C(O)C(O)C1O)c1ccccc1 (stereo not given in full)	> 250	> 250	> 250	> 141	> 250	> 250	> 250	> 250	> 250	> 250	> 250	> 250	> 141	–	–	–	–	–	–	–
CCN(CC)c1ccc2cc(C(=O)Nc3ccc4[nH]c(C(=O)N5C[C@@H](CCl)c6c5cc(OC(=O)Nc5ccccc5)c5[nH]cc(C)c65)cc4c3)oc2c1	> 1000	> 1000	> 1000	> 1000	633	> 1000	–	> 1000	> 1000	–	922	–	294	178	237	264	681	202	> 1000	44.5
O=C(CCl)NNC1=Nc2ccc(Cl)cc2SC1	3.08	3.02	3.4	2.86	4.16	5.01	3.44	14	4.07	5.46	5.46	–	–	–	–	–	–	–	–	–
